One test deals with SERT (Homo sapiens (Human), UniProt P31645). The experiment in a line: SERT inhibition assay (Neurotransmitter Transporter Fluorescence assay). It counts as cell-based. To be noted: class symbols; legend in nM/micromolar. The method, then: SERT inhibition was measured using a Neruotransmitter Transportation Fluorescence assay. Briefly, stable 5HHH cells were prepared in a 384 microwell plate. Compounds were prepared by in assay buffer (20 mM HEPES, 0.1% BSA). The compounds were added to the plated cells and incubated for 30 minutes at 37° C. 25 μL of dye solution (Molecular Devices Neurotransmitter Transporter Uptake Assay Kit) was added per well and incubated for 30 minutes at 37° C. The plates were then read on a plate reader.
Chain of SERT (P31645 whole entry, species assumed): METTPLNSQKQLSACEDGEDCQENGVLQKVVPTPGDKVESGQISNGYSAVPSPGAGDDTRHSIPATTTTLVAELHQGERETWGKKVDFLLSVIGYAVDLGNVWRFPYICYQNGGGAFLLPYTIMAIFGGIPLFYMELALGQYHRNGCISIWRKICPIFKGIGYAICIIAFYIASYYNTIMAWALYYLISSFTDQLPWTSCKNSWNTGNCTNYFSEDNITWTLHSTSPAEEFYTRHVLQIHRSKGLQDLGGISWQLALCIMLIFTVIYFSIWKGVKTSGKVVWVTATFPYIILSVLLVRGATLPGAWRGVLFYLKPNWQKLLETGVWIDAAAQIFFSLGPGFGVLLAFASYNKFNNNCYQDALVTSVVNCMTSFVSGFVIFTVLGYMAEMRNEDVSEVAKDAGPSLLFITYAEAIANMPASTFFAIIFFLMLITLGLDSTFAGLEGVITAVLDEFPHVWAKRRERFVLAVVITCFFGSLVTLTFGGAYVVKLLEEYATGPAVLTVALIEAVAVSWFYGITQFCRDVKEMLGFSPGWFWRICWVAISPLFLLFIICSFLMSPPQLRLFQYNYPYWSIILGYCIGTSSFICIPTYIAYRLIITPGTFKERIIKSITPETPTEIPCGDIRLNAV

A further test concerns the target PDE4C1 (Homo sapiens (Human), UniProt Q08493). The experiment in a line: PDE4 percent inhibition assay. To be noted: read-out: PDE4 Isoform % Inhibition @ 10 μM PDE4C1. It counts as biochemical. The method, then: (§1) PDE4 assay kit (BPS Bioscience, San Diego, CA), as described below.
(§2) • 1) Dilute 20 μM FAM-Cyclic-3′, 5′-AMP stock 100-fold with PDE buffer to make a 200 nM solution. Make only sufficient quantity needed for the assay; store remaining 20 μM stock solution in aliquots at −20° C. • 2) Add 25 μl of FAM-Cyclic-3′,5′-AMP (200 nM) to each well designated “Positive Control”, “Test Inhibitor”, and “Substrate Control”. • 3) Add 20 μl of PDE assay buffer to each well designated “Substrate Control” and 45 μl of PDE assay buffer to each well designated “Blank”. • 4) Add 5 μl of inhibitor solution to each well designated “Test Inhibitor”. For the wells labeled “Positive Control”, “Substrate Control” and “Blank”, add 5 μl of the same solution without inhibitor (inhibitor buffer). • 5) Thaw PDE on ice. Upon first thaw, briefly spin tube containing enzyme to recover the full contents of the tube. • 6) Dilute PDE4 in PDE buffer to 7.5 pg/μl (0.15 ng/reaction)*. Initiate reaction by adding 20 μl of PDE4 (7.5 pg/μl) to the wells designated “Positive Control” and “Test Inhibitor.” • 7) Incubate at room temperature for 1 hour.
(§3) • 1) Mix binding agent thoroughly and dilute binding agent 1:100 with binding agent diluent. • 2) Add 100 μl diluted binding agent to each microwell. Incubate at room temperature for 1 hour with slow shaking. • 3) Read the fluorescent polarization of the sample in a microtiter-plate reader equipped for the measurement of fluorescence polarization, capable of excitation at wavelengths ranging from 485±5 nm and detection of emitted light ranging from 528±10 nm. Blank value is subtracted from all other values.
(§4) 100 µM dilutions of the test compounds were prepared in assay buffer (10% DMSO concentration) and 5 μl of the dilution was added to a 50 μl reaction so that the final concentration of DMSO is 1% in all of reactions.
(§5) The enzymatic reactions were conducted at room temperature for 60 minutes in a 50 μl mixture containing PDE assay buffer, 100 nM FAM-cAMP, a PDE enzyme and the test compound.
(§6) After the enzymatic reaction, 100 Is of a binding solution (1:100 dilution of the binding agent with the binding agent diluent) was added to each reaction and the reaction was performed at room temperature for 60 minutes.
(§7) Fluorescence intensity was measured at an excitation of 485 nm and an emission of 528 nm using a Tecan Infinite M1000 microplate reader.

In a further test the target is PDE4D2 (Homo sapiens (Human), UniProt Q08499). The experiment in a line: PDE4 percent inhibition assay. Type of test: biochemical. Particulars: read-out: PDE4 Isoform % Inhibition @ 10 μM PDE4D2. The method, then: as §1, §2, §3, §4, §5, §6, §7
Chain of PDE4D2 (Q08499 303-809, change not shown): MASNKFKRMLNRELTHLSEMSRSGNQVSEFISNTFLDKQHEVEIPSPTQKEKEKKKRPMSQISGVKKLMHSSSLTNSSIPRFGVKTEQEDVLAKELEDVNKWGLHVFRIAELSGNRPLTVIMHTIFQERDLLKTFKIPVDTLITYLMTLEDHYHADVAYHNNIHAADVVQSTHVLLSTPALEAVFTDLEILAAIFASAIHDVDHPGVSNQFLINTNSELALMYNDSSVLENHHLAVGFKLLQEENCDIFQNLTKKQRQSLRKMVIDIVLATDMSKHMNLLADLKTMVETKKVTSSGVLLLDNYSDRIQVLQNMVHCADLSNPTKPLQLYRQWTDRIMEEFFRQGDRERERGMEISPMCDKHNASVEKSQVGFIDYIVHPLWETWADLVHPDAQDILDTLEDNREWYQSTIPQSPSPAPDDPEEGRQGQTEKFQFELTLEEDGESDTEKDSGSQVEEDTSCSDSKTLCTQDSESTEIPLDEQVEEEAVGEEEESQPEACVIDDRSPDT
For another test, the target named is PDE4B2 (Homo sapiens (Human), UniProt Q07343). The experiment in a line: PDE4 percent inhibition assay. It counts as biochemical. Particulars: read-out: PDE4 Isoform % Inhibition @ 10 μM PDE4B2. The method, then: as §1, §2, §3, §4, §5, §6, §7
Chain of PDE4B2 (Q07343 other isoform, or with tags, fused parts or gaps): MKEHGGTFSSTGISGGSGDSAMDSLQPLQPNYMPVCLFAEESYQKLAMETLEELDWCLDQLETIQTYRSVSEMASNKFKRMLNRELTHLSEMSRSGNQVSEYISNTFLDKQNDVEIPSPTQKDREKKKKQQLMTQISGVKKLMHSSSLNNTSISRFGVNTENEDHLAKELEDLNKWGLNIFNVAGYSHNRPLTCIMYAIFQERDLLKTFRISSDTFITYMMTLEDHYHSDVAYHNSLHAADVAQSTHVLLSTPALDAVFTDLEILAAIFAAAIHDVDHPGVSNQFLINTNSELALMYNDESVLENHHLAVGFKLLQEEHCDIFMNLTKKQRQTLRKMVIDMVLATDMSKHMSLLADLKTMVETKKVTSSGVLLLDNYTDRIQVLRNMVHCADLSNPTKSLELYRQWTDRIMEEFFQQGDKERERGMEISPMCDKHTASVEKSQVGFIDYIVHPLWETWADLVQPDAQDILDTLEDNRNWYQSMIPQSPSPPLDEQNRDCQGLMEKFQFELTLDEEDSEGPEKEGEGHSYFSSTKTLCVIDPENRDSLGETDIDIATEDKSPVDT
The next test deals with PDE4A1A (Homo sapiens (Human), UniProt P27815). The experiment in a line: PDE4 percent inhibition assay. Particulars: read-out: PDE4 Isoform % Inhibition @ 10 μM PDE4A1A. It counts as biochemical. As for the experimental part:
as §1, §2, §3, §4, §5, §6, §7

As a reminder, the IC50 is the concentration at which inhibition is half-maximal. A lower IC50 goes with inhibition by little substance. What is called inhibition is the change of the read-out against control, counted positive when it falls.

Chain of PDE4C1 (Q08493 whole entry, canonical isoform): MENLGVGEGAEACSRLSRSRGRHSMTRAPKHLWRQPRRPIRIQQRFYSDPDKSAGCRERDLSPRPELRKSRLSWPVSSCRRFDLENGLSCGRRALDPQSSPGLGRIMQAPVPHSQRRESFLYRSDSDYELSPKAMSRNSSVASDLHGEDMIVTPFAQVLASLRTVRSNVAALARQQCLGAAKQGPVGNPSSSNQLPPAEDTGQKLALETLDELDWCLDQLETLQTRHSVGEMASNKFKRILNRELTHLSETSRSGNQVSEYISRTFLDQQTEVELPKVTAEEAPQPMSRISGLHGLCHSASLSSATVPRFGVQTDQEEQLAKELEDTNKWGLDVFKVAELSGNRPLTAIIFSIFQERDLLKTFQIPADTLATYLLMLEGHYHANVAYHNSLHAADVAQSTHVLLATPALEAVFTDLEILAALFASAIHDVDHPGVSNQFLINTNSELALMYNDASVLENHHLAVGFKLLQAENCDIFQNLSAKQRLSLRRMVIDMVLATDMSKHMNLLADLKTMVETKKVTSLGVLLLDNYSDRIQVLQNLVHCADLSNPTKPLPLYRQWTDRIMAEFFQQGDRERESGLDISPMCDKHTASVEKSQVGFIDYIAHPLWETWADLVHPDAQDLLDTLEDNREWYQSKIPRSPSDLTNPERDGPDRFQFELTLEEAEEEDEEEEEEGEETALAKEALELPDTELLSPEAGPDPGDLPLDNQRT
Chain of PDE4A1A (P27815 other isoform, or with tags, fused parts or gaps): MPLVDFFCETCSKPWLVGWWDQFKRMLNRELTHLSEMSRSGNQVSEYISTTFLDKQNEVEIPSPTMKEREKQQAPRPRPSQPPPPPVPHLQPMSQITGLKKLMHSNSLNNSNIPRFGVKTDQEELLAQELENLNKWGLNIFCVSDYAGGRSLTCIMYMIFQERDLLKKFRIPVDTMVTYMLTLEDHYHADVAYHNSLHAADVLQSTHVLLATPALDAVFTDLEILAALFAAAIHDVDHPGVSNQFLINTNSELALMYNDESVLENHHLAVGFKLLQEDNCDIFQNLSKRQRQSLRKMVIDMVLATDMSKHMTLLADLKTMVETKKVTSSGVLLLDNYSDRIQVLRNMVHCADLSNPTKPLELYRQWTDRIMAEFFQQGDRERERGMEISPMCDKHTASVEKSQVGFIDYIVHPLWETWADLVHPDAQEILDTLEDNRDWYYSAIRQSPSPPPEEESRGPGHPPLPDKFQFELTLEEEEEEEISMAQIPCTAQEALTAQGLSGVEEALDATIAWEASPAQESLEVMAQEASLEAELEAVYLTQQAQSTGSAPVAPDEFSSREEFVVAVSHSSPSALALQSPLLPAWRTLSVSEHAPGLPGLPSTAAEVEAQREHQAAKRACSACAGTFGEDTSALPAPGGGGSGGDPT

As for `COc1ccc([C@]23CCN(C)[C@H]2CC(=O)C=C3c2ccccc2)cc1OC` (racemic) [Compound 201, rac-(3aS,7aS)-3a-(3,4-dimethoxyphenyl)-1-methyl-4-phenyl-1,2,3,3a,7,7a-hexahydro-6H-indol-6-one], on SERT, the IC50 is above 1000 nM. Also, the inhibition at 10 µM on PDE4C1 is 30 to 50%; at PDE4D2 it was at least 70%; on PDE4B2 it was at least 70%; on PDE4A1A, at least 70%.

Molecule `COc1ccc([C@@]23CCN(C)[C@H]2CC(=O)[C@@H]2O[C@@H]23)cc1OC` (racemic) [Compound 208, rac-(1aR,3aS,6aS,6bR)-6a-(3,4-dimethoxyphenyl)-4-methyloctahydro-2H-oxireno[2,3-e]indol-2-one] came in with a 50% inhibitory concentration (IC50) against SERT of 50 to 100 nM. In addition, the inhibition at 10 µM at PDE4C1, at PDE4D2, at PDE4B2 and at PDE4A1A was at least 70% throughout.

For `COc1ccc([C@@]23CC[C@H](n4ccc(C(F)(F)F)n4)C[C@@H]2N(C)CC3)cc1OC` [Compound 101, (3aS,6S,7aS)-3a-(3,4-dimethoxyphenyl)-1-methyl-6-(3-(trifluoromethyl)-1H-pyrazol-1-yl)octahydro-1H-indole], the inhibition at 10 µM at PDE4C1, on PDE4D2, on PDE4B2 and on PDE4A1A was below 30% in each case.

The molecule `COc1ccc([C@@]23CC[C@H](n4cccn4)C[C@@H]2N(C)CC3)cc1OC` [Compound 102, (3aS,6S,7aS)-3a-(3,4-dimethoxyphenyl)-1-methyl-6-(1H-pyrazol-1-yl)octahydro-1H-indole] displayed an IC50 on SERT below 50 nM. The inhibition at 10 µM at PDE4C1, on PDE4D2, on PDE4B2 and on PDE4A1A was below 30% in each case.

Molecule `COc1ccc([C@@]23CC[C@@H](n4cccn4)C[C@@H]2N(C)CC3)cc1OC` [Compound 103, (3aS,6R,7aS)-3a-(3,4-dimethoxyphenyl)-1-methyl-6-(1H-pyrazol-1-yl)octahydro-1H-indole] came in with a 50% inhibitory concentration (IC50) against SERT below 50 nM. Besides, the inhibition at 10 µM on PDE4C1, at PDE4D2, on PDE4B2 and on PDE4A1A was below 30% each time.

With `COc1ccc([C@@]23CC[C@H](N4CCC4)C[C@@H]2N(C)CC3)cc1OC` [Compound 104, (3aS,6S,7aS)-6-(azetidin-1-yl)-3a-(3,4-dimethoxyphenyl)-1-methyloctahydro-1H-indole], the 50% inhibitory concentration (IC50) on SERT was in the range of 100 to 500 nM. The inhibition at 10 µM at PDE4C1, at PDE4D2, on PDE4B2 and on PDE4A1A was below 30% each time.

In the case of `COc1ccc([C@@]23CC[C@@H](N4CCCC4)C[C@@H]2N(C)CC3)cc1OC` [Compound 105, (3aS,6R,7aS)-3a-(3,4-dimethoxyphenyl)-1-methyl-6-(pyrrolidin-1-yl)octahydro-1H-indole], on SERT, the half-inhibitory concentration (IC50) lay within 100 to 500 nM. Moreover, the inhibition at 10 µM on PDE4C1, on PDE4D2, at PDE4B2 and on PDE4A1A was below 30% in each case.

At SERT, `COc1ccc([C@@]23CC[C@H](N4CCCC4)C[C@@H]2N(C)CC3)cc1OC` [Compound 106, (3aS,6S,7aS)-3a-(3,4-dimethoxyphenyl)-1-methyl-6-(pyrrolidin-1-yl)octahydro-1H-indole] had a half-maximal inhibitory concentration (IC50) of 500 to 1000 nM. Moreover, the inhibition at 10 µM at PDE4C1, at PDE4D2, on PDE4B2 and at PDE4A1A was below 30% throughout.

On SERT, `COc1ccc([C@@]23CC[C@H](N4CCCCC4)C[C@@H]2N(C)CC3)cc1OC` [Compound 107, (3aS,6S,7aS)-3a-(3,4-dimethoxyphenyl)-1-methyl-6-(piperidin-1-yl)octahydro-1H-indole] registered an IC50 above 1000 nM. The inhibition at 10 µM on PDE4C1, on PDE4D2, on PDE4B2 and on PDE4A1A was below 30% throughout.

`COc1ccc([C@@]23CC[C@H](N4CCOCC4)C[C@@H]2N(C)CC3)cc1OC` [Compound 108, 4-((3aS,6S,7aS)-3a-(3,4-dimethoxyphenyl)-1-methyloctahydro-1H-indol-6-yl)morpholine] showed a half-maximal inhibitory concentration (IC50) on SERT of 100 to 500 nM. In addition, the inhibition at 10 µM at PDE4C1, at PDE4D2, on PDE4B2 and on PDE4A1A was below 30% throughout.

The molecule `COc1ccc([C@@]23CC[C@@H](N4CCOCC4)C[C@@H]2N(C)CC3)cc1OC` [Compound 109, 4-((3aS,6R,7aS)-3a-(3,4-dimethoxyphenyl)-1-methyloctahydro-1H-indol-6-yl)morpholine] registered an IC50 against SERT of 100 to 500 nM. Further, the inhibition at 10 µM at PDE4C1, at PDE4D2, at PDE4B2 and on PDE4A1A was below 30% throughout.

Take `COc1ccc([C@@]23CC[C@@H](N4CCCC4=O)C[C@@H]2N(C)CC3)cc1OC` [Compound 110, 1-((3aS,6R,7aS)-3a-(3,4-dimethoxyphenyl)-1-methyloctahydro-1H-indol-6-yl)pyrrolidin-2-one]: at SERT, the IC50 was below 50 nM. The inhibition at 10 µM on PDE4C1, on PDE4D2, on PDE4B2 and at PDE4A1A was below 30% each time.

For the molecule `COc1ccc([C@@]23CC[C@H](N4CCCC4=O)C[C@@H]2N(C)CC3)cc1OC` [Compound 111, 1-((3aS,6S,7aS)-3a-(3,4-dimethoxyphenyl)-1-methyloctahydro-1H-indol-6-yl)pyrrolidin-2-one], the IC50 at SERT was below 50 nM. In addition, the inhibition at 10 µM at PDE4C1, on PDE4D2, on PDE4B2 and at PDE4A1A was below 30% each time.

At SERT, `COc1ccc([C@@]23CC[C@@H](n4ccc(C(F)(F)F)n4)C[C@@H]2N(C)CC3)cc1OC` [Compound 115, (3aS,6R,7aS)-3a-(3,4-dimethoxyphenyl)-1-methyl-6-(3-(trifluoromethyl)-1H-pyrazol-1-yl)octahydro-1H-indole] gave a concentration for half-maximal inhibition (IC50) below 50 nM. In addition, the inhibition at 10 µM at PDE4C1, on PDE4D2, at PDE4B2 and on PDE4A1A was below 30% in each case.

`COc1ccc([C@@]23CC[C@@H](N4CCC4)C[C@@H]2N(C)CC3)cc1OC` [Compound 116, (3aS,6R,7aS)-6-(azetidin-1-yl)-3a-(3,4-dimethoxyphenyl)-1-methyloctahydro-1H-indole] displayed an IC50 against SERT of 500 to 1000 nM. Besides, the inhibition at 10 µM on PDE4C1, on PDE4D2, on PDE4B2 and at PDE4A1A was below 30% throughout.

Consider `CCN1CC[C@]2(c3ccc(OC)c(OC)c3)CCC(=O)C[C@H]12` [Compound 223], for which the IC50 against SERT is above 1000 nM.

In turn, `CCN1CC[C@@]2(c3ccc(OC)c(OC)c3)CCC(=O)C[C@@H]12` [Compound 224] came in with a 50% inhibitory concentration (IC50) on SERT below 50 nM.

At SERT, `COc1ccc([C@@]23CCC(=O)C[C@@H]2N(C(C)C)CC3)cc1OC` [Compound 226] yielded an IC50 of 500 to 1000 nM.

As for `COc1ccc([C@]23CCC(=O)C[C@H]2N(C(C)C)CC3)cc1OC` [Compound 227], the half-inhibitory concentration (IC50) against SERT was 500 to 1000 nM.
